Measurements: patent US11787785B2 (NOVARTIS AG, priority 2021, dated 2023)

Target: T1, WIZ protein (HiBit-WIZ fusion protein) (Homo sapiens, UniProt O95785+Q96SW2)
T1 construct: expressed in transfected cells
Test: Quantification of WIZ protein levels in HiBit tag fusion protein assay (WIZ HiBit assay in 293T cells)
Type: cell-based
Details: for Dmax at 25 µM / remaining activity at 25 µM: HEK-293T, 293T cells; for Dmax at 25 µM: 100 − Amax, read-out: % degradation of WIZ (100 − Amax); for remaining activity at 25 µM: DMSO-normalized, curve-fitted percentage of WIZ-HiBit remaining at 25 uM, read-out: WIZ Amax; for DC50: WIZ HiBit assay in 293T cells, 10-point, 5-fold dose response, highest concentration 25 μM, about 18 hours, read-out: WIZ AC50
Summary of the method: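 Luminescence after LgBit complementation quantified remaining HiBit-WIZ in lysates of single-copy stable 293T lines. Cells dosed ~18 h at 37 °C with 10-point, 5-fold dilutions (highest 25 μM); DMSO set to 100%, fitted curve gave % remaining at 25 μM (Amax).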

T1 sequence (O95785 whole entry, the tested form may be a part): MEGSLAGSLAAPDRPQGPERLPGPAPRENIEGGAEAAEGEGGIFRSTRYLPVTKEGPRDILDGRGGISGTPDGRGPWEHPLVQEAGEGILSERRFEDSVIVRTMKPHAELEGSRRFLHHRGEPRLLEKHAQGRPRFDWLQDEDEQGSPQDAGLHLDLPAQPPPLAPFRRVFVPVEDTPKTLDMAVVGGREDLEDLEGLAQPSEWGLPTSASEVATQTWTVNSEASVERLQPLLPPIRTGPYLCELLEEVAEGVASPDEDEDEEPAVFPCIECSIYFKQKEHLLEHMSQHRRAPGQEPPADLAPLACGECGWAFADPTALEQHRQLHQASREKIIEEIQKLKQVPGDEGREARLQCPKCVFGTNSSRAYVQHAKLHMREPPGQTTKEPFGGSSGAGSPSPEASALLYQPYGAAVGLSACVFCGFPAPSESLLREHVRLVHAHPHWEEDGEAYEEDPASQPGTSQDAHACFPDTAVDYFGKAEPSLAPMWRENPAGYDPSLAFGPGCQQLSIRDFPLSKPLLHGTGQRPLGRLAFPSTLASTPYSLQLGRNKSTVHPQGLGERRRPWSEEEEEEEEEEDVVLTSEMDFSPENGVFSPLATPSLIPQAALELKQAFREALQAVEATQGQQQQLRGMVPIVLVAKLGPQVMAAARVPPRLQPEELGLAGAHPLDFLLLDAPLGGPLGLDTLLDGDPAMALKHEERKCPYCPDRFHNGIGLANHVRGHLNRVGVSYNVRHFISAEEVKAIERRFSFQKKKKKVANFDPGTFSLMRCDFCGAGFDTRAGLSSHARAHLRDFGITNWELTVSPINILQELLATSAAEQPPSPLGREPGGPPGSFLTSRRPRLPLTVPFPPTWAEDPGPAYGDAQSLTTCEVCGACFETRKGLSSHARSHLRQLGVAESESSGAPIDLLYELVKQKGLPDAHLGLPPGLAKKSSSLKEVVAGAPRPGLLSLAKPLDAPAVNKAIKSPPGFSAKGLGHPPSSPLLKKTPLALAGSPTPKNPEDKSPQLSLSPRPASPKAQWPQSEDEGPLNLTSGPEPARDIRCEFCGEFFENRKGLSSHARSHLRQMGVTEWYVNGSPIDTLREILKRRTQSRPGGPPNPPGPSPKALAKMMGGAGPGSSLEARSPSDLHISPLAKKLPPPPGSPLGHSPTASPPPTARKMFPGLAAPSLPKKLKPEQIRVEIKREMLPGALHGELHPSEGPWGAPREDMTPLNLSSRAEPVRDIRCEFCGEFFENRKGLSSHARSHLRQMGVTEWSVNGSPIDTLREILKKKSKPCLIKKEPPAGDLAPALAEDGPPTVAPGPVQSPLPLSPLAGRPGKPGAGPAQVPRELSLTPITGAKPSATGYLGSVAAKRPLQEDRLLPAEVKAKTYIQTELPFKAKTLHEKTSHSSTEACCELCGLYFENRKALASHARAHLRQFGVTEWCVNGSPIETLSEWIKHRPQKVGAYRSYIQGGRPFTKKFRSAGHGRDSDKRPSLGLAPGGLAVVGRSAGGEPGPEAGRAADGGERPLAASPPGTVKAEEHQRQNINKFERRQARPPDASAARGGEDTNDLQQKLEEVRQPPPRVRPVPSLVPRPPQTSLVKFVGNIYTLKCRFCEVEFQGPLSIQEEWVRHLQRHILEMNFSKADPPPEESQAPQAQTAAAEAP
T1 sequence (Q96SW2 whole entry, the tested form may be a part): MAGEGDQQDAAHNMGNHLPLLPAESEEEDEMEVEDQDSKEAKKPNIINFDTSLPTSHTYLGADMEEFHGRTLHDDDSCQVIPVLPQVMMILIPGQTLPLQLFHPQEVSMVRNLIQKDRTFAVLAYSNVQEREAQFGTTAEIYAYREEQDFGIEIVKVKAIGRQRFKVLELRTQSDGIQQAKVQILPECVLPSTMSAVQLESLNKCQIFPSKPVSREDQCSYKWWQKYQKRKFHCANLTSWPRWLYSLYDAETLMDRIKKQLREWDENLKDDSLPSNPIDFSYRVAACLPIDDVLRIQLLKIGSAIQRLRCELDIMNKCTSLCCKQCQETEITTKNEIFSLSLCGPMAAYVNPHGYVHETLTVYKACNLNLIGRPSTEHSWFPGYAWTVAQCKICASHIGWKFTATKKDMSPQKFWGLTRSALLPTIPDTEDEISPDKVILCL
T1 sequence (Q16531 whole entry partner, the tested form may be a part): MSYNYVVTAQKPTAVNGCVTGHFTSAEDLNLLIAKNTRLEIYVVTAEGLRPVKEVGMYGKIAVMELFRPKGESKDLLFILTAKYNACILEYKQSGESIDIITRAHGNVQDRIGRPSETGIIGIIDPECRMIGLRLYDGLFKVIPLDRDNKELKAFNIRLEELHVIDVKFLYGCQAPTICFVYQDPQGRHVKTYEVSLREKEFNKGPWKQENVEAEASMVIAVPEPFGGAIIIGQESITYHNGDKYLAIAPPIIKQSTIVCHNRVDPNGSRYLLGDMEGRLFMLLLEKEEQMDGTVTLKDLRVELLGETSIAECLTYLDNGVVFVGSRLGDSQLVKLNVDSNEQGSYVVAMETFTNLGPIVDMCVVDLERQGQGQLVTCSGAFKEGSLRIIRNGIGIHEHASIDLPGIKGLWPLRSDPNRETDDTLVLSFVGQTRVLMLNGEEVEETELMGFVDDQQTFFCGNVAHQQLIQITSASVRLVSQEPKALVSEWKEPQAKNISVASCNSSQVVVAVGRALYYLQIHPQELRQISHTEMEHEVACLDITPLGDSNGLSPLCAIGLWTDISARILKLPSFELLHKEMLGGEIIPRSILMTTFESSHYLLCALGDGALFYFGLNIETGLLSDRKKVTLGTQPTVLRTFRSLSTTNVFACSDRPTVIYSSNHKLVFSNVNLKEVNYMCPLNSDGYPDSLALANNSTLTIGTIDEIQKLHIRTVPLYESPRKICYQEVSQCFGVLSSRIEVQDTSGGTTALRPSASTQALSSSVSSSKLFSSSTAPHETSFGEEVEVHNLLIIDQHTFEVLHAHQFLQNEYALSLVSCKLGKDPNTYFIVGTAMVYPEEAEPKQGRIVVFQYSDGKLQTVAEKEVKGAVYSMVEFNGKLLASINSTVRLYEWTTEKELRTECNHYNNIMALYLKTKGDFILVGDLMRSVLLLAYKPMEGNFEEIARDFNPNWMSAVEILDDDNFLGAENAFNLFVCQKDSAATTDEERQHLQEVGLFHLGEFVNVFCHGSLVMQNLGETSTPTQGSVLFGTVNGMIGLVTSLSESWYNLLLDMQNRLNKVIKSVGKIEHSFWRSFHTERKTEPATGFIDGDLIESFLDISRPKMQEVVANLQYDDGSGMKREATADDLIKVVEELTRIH

Work on CC1(CN2CCC(Cc3ccn4ncc(N5CCC(=O)NC5=O)c4c3)CC2)COC1 [Example 118, 1-(5-((1-((3-methyloxetan-3-yl)methyl)piperidin-4-yl)methyl)pyrazolo[1,5-a]pyridin-3-yl)dihydropyrimidine-2,4(1H,3H)-dione] yielded a Dmax at 25 µM of 64%, a remaining activity at 25 µM of 36% and a DC50 of 166 nM.

CC(C)CCN1CCC(Cc2ccn3ncc(N4CCC(=O)NC4=O)c3c2)CC1 [Example 19, 1-(5-((1-isopentylpiperidin-4-yl)methyl)pyrazolo[1,5-a]pyridin-3-yl)dihydropyrimidine-2,4(1H,3H)-dione] gave a Dmax at 25 µM of 81%, a remaining activity at 25 µM of 19% and a DC50 of 20 nM.

O=C1CCN(c2cnn3ccc(CN4CCN5CCOC[C@H]5C4)cc23)C(=O)N1 [Example 263, (R)-1-(5-((hexahydropyrazino[2,1-c][1,4]oxazin-8(1H)-yl)methyl)pyrazolo[1,5-a]pyridin-3-yl)dihydropyrimidine-2,4(1H,3H)-dione] was tested, and the Dmax at 25 µM was 55%, the remaining activity at 25 µM was 45% and the DC50 was 880 nM.

C[C@H]1C[C@H](Cc2ccn3ncc(N4CCC(=O)NC4=O)c3c2)CCN1CC1CCCC1 [Example 144] showed a Dmax at 25 µM of 87%, a remaining activity at 25 µM of 13% and a DC50 of 8 nM.

Compound O=C1CCN(c2cnn3ccc(CC4CCN(CC5CCC(F)(F)CC5)CC4)cc23)C(=O)N1 [Example 4, 1-(5-((1-((4,4-difluorocyclohexyl)methyl)piperidin-4-yl)methyl)pyrazolo[1,5-a]pyridin-3-yl)dihydropyrimidine-2,4(1H,3H)-dione] has a Dmax at 25 µM of 90%, a remaining activity at 25 µM of 10% and a DC50 of 5 nM.

With CO[C@H]1C[C@@H](CN2CC[C@@H](Cc3ccn4ncc(N5CCC(=O)NC5=O)c4c3)C[C@@H]2C)C1 [Example 303, 1-(5-(((2S,4R)-1-(((1s,3R)-3-methoxycyclobutyl)methyl)-2-methylpiperidin-4-yl)methyl)pyrazolo[1,5-a]pyridin-3-yl)dihydropyrimidine-2,4(1H,3H)-dione] the Dmax at 25 µM was 80%, the remaining activity at 25 µM was 20% and the DC50 was 46 nM.

In the case of O=C1CCN(c2cnn3ccc(CN4CCCNCC4)cc23)C(=O)N1 [Example 248, 1-(5-((1,4-diazepan-1-yl)methyl)pyrazolo[1,5-a]pyridin-3-yl)dihydropyrimidine-2,4(1H,3H)-dione], the Dmax at 25 µM is reported as 0%, the remaining activity at 25 µM is reported as 100% and the DC50 is reported as > 25000 nM.

CC(C)(O)CN1CCN(Cc2ccn3ncc(N4CCC(=O)NC4=O)c3c2)CC1 [Example 183, 1-(5-((4-(2-hydroxy-2-methylpropyl)piperazin-1-yl)methyl)pyrazolo[1,5-a]pyridin-3-yl)dihydropyrimidine-2,4(1H,3H)-dione] gave a Dmax at 25 µM of 65%, a remaining activity at 25 µM of 35% and a DC50 of 468 nM.

In the case of O=C1CCN(c2cnn3ccc(CC4CCN(S(=O)(=O)C5CCCC5)CC4)cc23)C(=O)N1 [Example 82], the Dmax at 25 µM is reported as 90%, the remaining activity at 25 µM is reported as 10% and the DC50 is reported as 33 nM.

O=C1CCN(c2cnn3ccc(CN4CCN(Cc5ccccc5)CC4)cc23)C(=O)N1 [Example 165] was tested, and the Dmax at 25 µM was 69%, the remaining activity at 25 µM was 31% and the DC50 was 198 nM.

For O=C1CCN(c2cnn3ccc(CC4CCN(S(=O)(=O)C5CCOCC5)CC4)cc23)C(=O)N1 [Example 83], the Dmax at 25 µM was 89%, the remaining activity at 25 µM was 11% and the DC50 was 76 nM.

Compound C[C@H]1CN(CC2CCC2)CCN1Cc1ccn2ncc(N3CCC(=O)NC3=O)c2c1 [Example 224] has a Dmax at 25 µM of 45%, a remaining activity at 25 µM of 55% and a DC50 of 854 nM.

CC(C)(C)OC(=O)N1CCC(Cc2ccn3ncc(N4CCC(=O)NC4=O)c3c2)CC1 [Example 97, tert-butyl 4-((3-(2,4-dioxotetrahydropyrimidin-1(2H)-yl)pyrazolo[1,5-a]pyridin-5-yl)methyl)piperidine-1-carboxylate] showed a Dmax at 25 µM of 44%, a remaining activity at 25 µM of 56% and a DC50 of 24800 nM.

With O=C1CCN(c2cnn3ccc(CC4CCN(CC5CCCCC5)CC4)cc23)C(=O)N1 [Example 1, 1-(5-((1-(cyclohexylmethyl)piperidin-4-yl)methyl)pyrazolo[1,5-a]pyridin-3-yl)dihydropyrimidine-2,4(1H,3H)-dione] the Dmax at 25 µM was 91%, the remaining activity at 25 µM was 9% and the DC50 was 20 nM.

In the case of CC(C)(CC1CCOCC1)N1CCC(Cc2ccn3ncc(N4CCC(=O)NC4=O)c3c2)CC1 [Example 137, 1-(5-((1-(2-methyl-1-(tetrahydro-2H-pyran-4-yl)propan-2-yl)piperidin-4-yl)methyl)pyrazolo[1,5-a]pyridin-3-yl)dihydropyrimidine-2,4(1H,3H)-dione], the Dmax at 25 µM is reported as 77%, the remaining activity at 25 µM is reported as 23% and the DC50 is reported as 121 nM.

In the case of C[C@H]1C[C@H](Cc2ccn3ncc(N4CCC(=O)NC4=O)c3c2)CCN1C[C@H]1CCC(F)(F)C1 [Example 307, 1-(5-(((2S,4R)-1-(((S)-3,3-difluorocyclopentyl)methyl)-2-methylpiperidin-4-yl)methyl)pyrazolo[1,5-a]pyridin-3-yl)dihydropyrimidine-2,4(1H,3H)-dione], the Dmax at 25 µM is reported as 84%, the remaining activity at 25 µM is reported as 16% and the DC50 is reported as 6 nM.

Compound CC(c1ccccc1)N1CCC(Cc2ccn3ncc(N4CCC(=O)NC4=O)c3c2)CC1 (stereo not drawn) [Example 26, 1-(5-((1-(1-phenylethyl)piperidin-4-yl)methyl)pyrazolo[1,5-a]pyridin-3-yl)dihydropyrimidine-2,4(1H,3H)-dione] has a Dmax at 25 µM of 76%, a remaining activity at 25 µM of 24% and a DC50 of 297 nM.

In the case of CC(C)CN1[C@H](C)CN(Cc2ccn3ncc(N4CCC(=O)NC4=O)c3c2)C[C@@H]1C [Example 257, 1-(5-(((3S,5R)-4-isobutyl-3,5-dimethylpiperazin-1-yl)methyl)pyrazolo[1,5-a]pyridin-3-yl)dihydropyrimidine-2,4(1H,3H)-dione], the Dmax at 25 µM is reported as 74%, the remaining activity at 25 µM is reported as 26% and the DC50 is reported as 101 nM.

Compound O=C1CCN(c2cnn3ccc(CC4CCN(C(=O)C5CCCCC5)CC4)cc23)C(=O)N1 [Example 99] has a Dmax at 25 µM of 52%, a remaining activity at 25 µM of 48% and a DC50 of 1830 nM.

Work on CC(C)N1CCN(Cc2ccn3ncc(N4CCC(=O)NC4=O)c3c2)CC1 [Example 166] yielded a Dmax at 25 µM of 66%, a remaining activity at 25 µM of 34% and a DC50 of 632 nM.

O=C1CCN(c2cnn3ccc(CC4CCN(Cc5cccc(F)c5)CC4)cc23)C(=O)N1 [Example 22, 1-(5-((1-(3-fluorobenzyl)piperidin-4-yl)methyl)pyrazolo[1,5-a]pyridin-3-yl)dihydropyrimidine-2,4(1H,3H)-dione] showed a Dmax at 25 µM of 77%, a remaining activity at 25 µM of 23% and a DC50 of 71 nM.

With C[C@@H]1CN(Cc2ccn3ncc(N4CCC(=O)NC4=O)c3c2)CCN1CC1CCCCC1 [Example 214] the Dmax at 25 µM was 65%, the remaining activity at 25 µM was 35% and the DC50 was 151 nM.

Compound COCCS(=O)(=O)N1CCC(Cc2ccn3ncc(N4CCC(=O)NC4=O)c3c2)CC1 [Example 92] has a Dmax at 25 µM of 69%, a remaining activity at 25 µM of 31% and a DC50 of 131 nM.

Compound O=C1CCN(c2cnn3ccc(CC4CCN(CC(F)F)CC4)cc23)C(=O)N1 [Example 43, 1-(5-((1-(2,2-difluoroethyl)piperidin-4-yl)methyl)pyrazolo[1,5-a]pyridin-3-yl)dihydropyrimidine-2,4(1H,3H)-dione] has a Dmax at 25 µM of 70%, a remaining activity at 25 µM of 30% and a DC50 of 34 nM.

With C[C@H]1CN(Cc2ccn3ncc(N4CCC(=O)NC4=O)c3c2)CCN1CC1CCO1 (stereo partly drawn) [Example 324, 1-(5-(((3S)-3-methyl-4-(oxetan-2-ylmethyl)piperazin-1-yl)methyl)pyrazolo[1,5-a]pyridin-3-yl)dihydropyrimidine-2,4(1H,3H)-dione] the Dmax at 25 µM was 72%, the remaining activity at 25 µM was 28% and the DC50 was 108 nM.

For COCC(F)(F)CN1CCN(Cc2ccn3ncc(N4CCC(=O)NC4=O)c3c2)C[C@@H]1C [Example 328, (S)-1-(5-((4-(2,2-difluoro-3-methoxypropyl)-3-methylpiperazin-1-yl)methyl)pyrazolo[1,5-a]pyridin-3-yl)dihydropyrimidine-2,4(1H,3H)-dione], the Dmax at 25 µM was 52%, the remaining activity at 25 µM was 48% and the DC50 was 338 nM.

O=C1CCN(c2cnn3ccc(CC4CCCNCC4)cc23)C(=O)N1 (stereo not drawn) [Example 269, 1-(5-(azepan-4-ylmethyl)pyrazolo[1,5-a]pyridin-3-yl)dihydropyrimidine-2,4(1H,3H)-dione] gave a Dmax at 25 µM of 49%, a remaining activity at 25 µM of 51% and a DC50 of 1020 nM.

O=C1CCN(c2cnn3ccc(CC4CCN(CCC5CCCC5)CC4)cc23)C(=O)N1 [Example 16, 1-(5-((1-(2-cyclopentylethyl)piperidin-4-yl)methyl)pyrazolo[1,5-a]pyridin-3-yl)dihydropyrimidine-2,4(1H,3H)-dione] was tested, and the Dmax at 25 µM was 84%, the remaining activity at 25 µM was 16% and the DC50 was 18 nM.

C[C@H]1CN(Cc2ccn3ncc(N4CCC(=O)NC4=O)c3c2)CCN1CC1CC2(COC2)C1 [Example 325, (S)-1-(5-((4-((2-oxaspiro[3.3]heptan-6-yl)methyl)-3-methylpiperazin-1-yl)methyl)pyrazolo[1,5-a]pyridin-3-yl)dihydropyrimidine-2,4(1H,3H)-dione] gave a Dmax at 25 µM of 82%, a remaining activity at 25 µM of 18% and a DC50 of 47 nM.

In the case of O=C1CCN(c2cnn3ccc(CC4CCN(Cc5ccccc5F)CC4)cc23)C(=O)N1 [Example 38, 1-(5-((1-(2-fluorobenzyl)piperidin-4-yl)methyl)pyrazolo[1,5-a]pyridin-3-yl)dihydropyrimidine-2,4(1H,3H)-dione], the Dmax at 25 µM is reported as 71%, the remaining activity at 25 µM is reported as 29% and the DC50 is reported as 112 nM.
